Values joined by “and” are separate entries in the source; they are usually repeats but may differ in a detail not shown here. Equal entries are not always repeated.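 Five concentrations, 48 hours, 96-well plates. The concentration for 50% growth inhibition is given as GI50. TGI denotes the concentration required for complete inhibition of growth.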
Experiments:
Test in all cases: NCI anticancer screen, dose series, 48 h
[1] = system: OVCAR-8 ovarian
[2] = system: SK-MEL-2 melanoma
[3] = system: SF-295 CNS
[4] = system: ACHN renal
[5] = system: SNB-19 CNS
[6] = system: NCI-H522 lung
[7] = system: NCI-H226 lung
[8] = system: K-562 leukemia
[9] = system: SK-MEL-5 melanoma
[10] = system: MOLT-4 leukemia

SMILES | GI50 [1] | TGI [1] | GI50 [2] | TGI [2] | GI50 [3] | TGI [3] | GI50 [4] | TGI [4] | GI50 [5] | TGI [5] | GI50 [6] | TGI [6] | GI50 [7] | TGI [7] | GI50 [8] | TGI [8] | GI50 [9] | TGI [9] | TGI [10] | GI50 [10]
O=C(CSCC(=O)N/N=C/c1ccccc1O)N/N=C\c1ccccc1O | 1.92 µM | > 100 µM | 5.35 µM | > 100 µM | 1.78 µM | > 100 µM | 0.877 µM | 25 µM | 2.95 µM | > 100 µM | 3.61 µM | > 100 µM | 3.43 µM | > 100 µM | 2.39 µM | > 100 µM | 1.86 µM | > 100 µM |  | 
Cc1coc2c1C(=O)C(=O)c1ccccc1-2 |  | 1.25 µM |  | 3.78 µM |  | 3.03 µM |  |  |  |  |  |  |  | 2.55 µM |  | 1.44 µM |  | 1.92 µM | 6.03 µM | 
NC(=S)N=Nc1c(O)[nH]c2c(Cl)cc(Cl)cc12 |  | 40.8 µM |  | 34.8 µM |  | 46.6 µM |  | > 100 µM |  | > 100 µM |  |  |  | 30.3 µM |  | > 100 µM |  | 28.2 µM | 67.8 µM | 
CC(C)(C)OC(=O)NCCCCn1c2c(c3ccccc3c1=O)C(=O)c1ccccc1-2 | 8.75 µM | 30.3 µM | 52.1 µM | > 100 µM | 16.5 µM | 56.1 µM | 15.7 µM | 50.2 µM | 25.1 µM | 94.5 µM | 27 µM | > 100 µM | 14.1 µM | 51.2 µM | 24.8 µM | > 100 µM |  |  | > 100 µM | 4.32 µM
O=S(=O)(NCCNc1nccc(-c2c(-c3ccc(F)c(O)c3)nc3sccn23)n1)c1ccc(Cl)cc1 | 2.18 µM | 36.7 µM | 1.64 µM | 7.99 µM | 2.35 µM | 14.2 µM | 1.4 µM | > 50 µM | 3.35 µM | 11.3 µM | 2.08 µM | 18.6 µM | 1.8 µM | 18.4 µM |  |  |  |  |  | 
COc1ccc(C(C)c2cc(OC)c(OC)c(OC)c2)cc1 (stereo not given) | 0.263 µM | > 50 µM |  |  | 0.0752 µM | > 50 µM | 0.341 µM | > 50 µM | 0.221 µM | > 50 µM | 0.133 µM | > 50 µM | 46.5 µM | > 50 µM | 0.0261 µM | > 50 µM | 0.13 µM | 12.8 µM | > 50 µM | 0.264 µM
CCN(CC)c1c(-c2ccccc2)n[nH]c1C(=O)OC | 15.5 µM | 44.9 µM | 42.5 µM | > 100 µM |  |  | 28.8 µM | 74.3 µM | 46.4 µM | > 100 µM | 18.5 µM | 50.7 µM | 16.9 µM | 38.5 µM | 31.2 µM | > 100 µM | 14.5 µM | 27.6 µM | 58.2 µM | 18.6 µM
NCCCOc1cc2ccccc2cc1C(=O)Nc1ccc(Cl)cc1OC(=O)c1cc2ccccc2cc1OCCCN |  |  | 0.312 µM | 1.2 µM | 0.516 µM | 1.44 µM | 0.373 µM | 0.972 µM | 0.766 µM | 2.19 µM | 0.235 µM | 0.639 µM |  |  |  |  | 1.23 µM | 2.49 µM | 3.66 µM | 0.468 µM
O=C1C(=C2CCCC2)CCC1CN1CCCCC1 (stereo not given) |  | 43.4 µM |  | 30.7 µM |  | > 100 µM |  |  |  | > 100 µM |  | 3.45 µM |  |  |  | 47.1 µM |  | 34.1 µM | 41.9 µM | 
C[P+](C)(C)C |  | > 100 µM |  | > 100 µM |  | > 100 µM |  | > 100 µM |  | > 100 µM |  |  |  | > 100 µM |  | > 100 µM |  | > 100 µM | > 100 µM | 
C/C(=N\NC(N)=S)c1ccc(C)c(C)c1 |  | > 100 µM |  | > 100 µM |  | > 100 µM |  | > 100 µM |  |  |  |  |  | > 100 µM |  | > 100 µM |  | > 100 µM | 90.2 µM | 
C[C@H]1C/C=C/[C@H]2[C@@H]3O[C@]3(C)[C@@H](C)[C@H]3[C@H](Cc4ccccc4)NC(=O)[C@]32OC(=O)O/C=C/[C@@](C)(O)C1=O | 15 µM | 89.7 µM and 125 µM and > 250 µM | 34.2 µM | 38.6 µM and 125 µM | 0.0484 µM and 0.025 µM |  |  |  | 0.0174 µM |  | 0.0125 µM and 0.025 µM | 4.24 µM and 12.3 µM and 39.8 µM | 0.025 µM |  | 0.0125 µM and 0.025 µM | 91.2 µM and 125 µM and > 250 µM | 0.0539 µM and 0.0351 µM |  |  | 0.289 µM and 0.052 µM
CCOC(=O)C(Cc1c[nH]c2cc(N(CCO)CCO)ccc12)(NC(C)=O)C(=O)OCC | 697 µM | > 1000 µM |  |  | > 1000 µM | > 1000 µM | 481 µM | > 1000 µM | > 1000 µM | > 1000 µM | 61.9 µM | > 1000 µM | > 1000 µM | > 1000 µM | 81.7 µM | 501 µM |  | > 1000 µM |  | 
COc1cc(-n2cc(-c3ccccc3)[nH]c2=O)cc(OC)c1OC |  |  | > 100 µM | > 100 µM | 37.8 µM | > 100 µM | 45.5 µM | > 100 µM | 30.9 µM | > 100 µM | 27.2 µM | > 100 µM | 57.4 µM | > 100 µM | 83.9 µM | > 100 µM | 39.4 µM | > 100 µM | > 100 µM | > 100 µM
O=[P+](O)c1ccccn1 |  | > 100 µM |  |  |  | > 100 µM |  | > 100 µM |  | > 100 µM |  | > 100 µM |  | > 100 µM |  | > 100 µM |  | > 100 µM | > 100 µM | 
Cc1cccc(C)c1NC(=O)CCC/C(CC(=O)c1ccc(F)cc1)=N\NC(=O)C(=O)NN |  | > 100 µM |  | > 100 µM |  | > 100 µM |  | > 100 µM |  | > 100 µM |  |  |  | > 100 µM |  | > 100 µM |  | > 100 µM | > 100 µM | 

Source: PubChem BioAssay (NCI)
